Data set [1] has as its system SARS-CoV-2. Conditions: Caco-2.
The conditions of data set [2]: cited from earlier work.
In another data set the test system is Caco2 cells. Put plainly: Cell viability assay (CellTiterGlo), Caco2. The data set is classed as cell-based, human. As to conditions: 48 hrs incubation; concentration based on metal content; read-out: CC50 Caco2. The procedure:
(§1) The CellTiterGlo® luminescent assay (Promega Corporation, Madison, Wis., USA) was performed to detect the cytotoxicity of the selected compounds as previously described^39. Briefly, VeroE6 cells (4×10^4 cells per well) and Caco2 cells (4×10^4 cells per well) were incubated with different concentrations of the individual compound in 96-well plates for 48 hrs, followed by the addition of the substrate and measurement of luminance 10 min later. Ridaura and Au(PEt3)Cl were dissolved in DMSO, and the final percentage of DMSO was kept at 1% in culture medium.

The subject of the next data set is VeroE6 cells. Put plainly: Cell viability assay (CellTiterGlo), VeroE6. The data set is classed as cell-based, African green monkey. As to conditions: 48 hrs incubation; concentration based on metal content; read-out: CC50 VeroE6. The procedure: as §1
Data set [3] concerns SARS-CoV-2. Put plainly: Golden Syrian hamster model, oral treatment (NAC studies). The data set is classed as in vivo. Conditions: hamster, in vivo.

We go through 1 substance from patent publication US20230218663A1, “COMPOSITIONS AND METHODS FOR TREATING A SARS-COV-2 INFECTION” (priority 2020, published 2023).

Regarding Colloidal Bismuth Subcitrate [De-Nol], in the data set with SARS-CoV-2 [1], the “maximal viral load reduction in Caco2 cell culture supernatant” value was around 4 logs and the “maximal viral load reduction in the Caco2 cell lysate” value is around 3 logs. In addition, the “optimum pH for precipitation” value in data set [2] (gastric juice) is 3.5. Moreover, the solubility entry in data set [2] (water) is reported as “soluble in water”. Also, in the data set on Caco2 cells, the CC50 came to 3.74 ± 0.125 mM. The cytotoxic concentration (CC50) in the data set on VeroE6 cells was 3.254 ± 0.021 mM. In the data set on SARS-CoV-2 [3], the “adverse clinical signs and symptoms” value is given as “mildly mitigated”; the “pulmonary viral load compared with vehicle group” value was “No statistically significant difference”. Further, the “change in lung IL-6 level versus vehicle group” value in the data set on SARS-CoV-2 [3] (po) is “lowered but statistically non-significant change”.
